This test addresses T1, h-11βHSD1 (Homo sapiens, UniProt P28845).
T1 construct: made in house; host or cells: yeast
Kind of test: 11βHSD1 enzyme assay (SPA). The class given is biochemical. To be noted: extract of yeast transformed with h-11βHSD1; 120 nM 3H-cortisone; 60 min at 30° C. As for the experimental part: 11βHSD1 Enzyme Assay Materials ^3H-cortisone and anti-rabbit Ig coated scintillation proximity assay (SPA) beads were purchased from Amersham Pharmacia Biotech, β-NADPH was from Sigma and rabbit anti-cortisol antibodies were from Fitzgerald. […] The test compounds were dissolved in DMSO (10 mM). All dilutions were performed in a buffer containing 50 mM TRIS-HCl (Sigma Chemical Co), 4 mM EDTA (Sigma Chemical Co), 0.1% BSA (Sigma Chemical Co), 0.01% Tween-20 (Sigma Chemical Co) and 0.005% bacitracin (Novo Nordisk A/S), pH=7.4. Optiplate 96 wells plates were supplied by Packard. The amount of ^3H-cortisol bound to the SPA beads was measured on TopCount NXT, Packard. […] The reaction was initiated by mixing the different components and was allowed to proceed under shaking for 60 min at 30° C. The reaction was stopped be the addition of 10 fold excess of a stopping buffer containing 500 μM carbenoxolone and 1 μM cortisone. Data was analysed using GraphPad Prism software.

For two compounds, IC50 results are on record in patent US20100168083A1, “ADAMANTANE DERIVATIVES FOR THE TREATMENT OF THE METABOLIC SYNDROME” (priority 2006, published 2010).

SMILES strings stand for the structures.

T1 sequence (P28845 whole entry): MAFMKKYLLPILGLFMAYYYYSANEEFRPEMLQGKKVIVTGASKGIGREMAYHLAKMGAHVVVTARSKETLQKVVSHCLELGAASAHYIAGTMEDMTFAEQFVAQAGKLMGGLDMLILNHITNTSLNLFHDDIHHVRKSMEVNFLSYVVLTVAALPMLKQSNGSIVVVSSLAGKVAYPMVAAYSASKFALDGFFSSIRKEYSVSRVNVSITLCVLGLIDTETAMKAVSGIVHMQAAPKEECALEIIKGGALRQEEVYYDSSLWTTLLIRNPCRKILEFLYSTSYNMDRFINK

With `O=C(O)c1ccc(OCCC2CCN(C(=O)[C@]34C[C@H]5C[C@H](C[C@H](C5)C3)C4)CC2)cc1` [Example 3, 4-{2-[1-(Tricyclo[3.3.1.1.3.7]decanane-1-carbonyl)-piperidin-4-yl]-ethoxy}-benzoic acid], the half-inhibitory concentration (IC50) amounted to 1320 nM. Compound `O=C(N1CCC(COc2ccccn2)CC1)[C@]12C[C@H]3C[C@H](C[C@H](C3)C1)C2` [Example 6] showed an IC50 of 835 nM.

As usually defined, the IC50 is the concentration that gives 50% inhibition. Lower therefore signals higher potency.
